For assay [1], the system named is TeloDNA antisense (5'-fluorescein) (DNA, single strand) CCCTAACCCTAACCCTAACCCTAA
The experiment in a line: fluorescence polarization. As to conditions: 150 mM salt (KCl, NaCl or LiCl; which not stated); 20 mM HEPES pH 7.5, room temperature, tRNA competitor; dilutions from 50 μM compound.

In assay [2] the test system is TeloDNA (5'-fluorescein) (DNA, G4) TTAGGGTTAGGGTTAGGGTTAGGG
The experiment in a line: fluorescence polarization. The note with it: 150 mM KCl, NaCl or LiCl (salt not specified); 20 mM HEPES; 20 mM HEPES pH 7.5, room temperature, tRNA competitor added, 10 nM probe; apparent. For orientation: In fluorescence polarisation assays a small probe gives low polarisation when free and higher when bound to something large.

For assay [3], the system named is nascent TERRA transcripts. The experiment in a line: Nascent RNA capture (EU, Click-iT) and RT-qPCR for TERRA in LOX cells. As to conditions: 2 μM, 48 h, then EU 4 h. In kind it is cell-based, human. The method, then:
Mei et al, 2020 TERRA Requires TRF2 GAR Domain
Nascent RNA analysis was performed as described previously 2 by the use of Click-iT Nascent RNA capture kit (Life Technologies) with some modifications. Briefly, LOX cells were treated with 2 µM of chemicals, or LOX TRF2DB cells were induced with 1 µg/ml of doxycycline for 48 hrs, and then treated cells were pulse labeled 0.2 mM EU for additional 4 hrs. Total RNA was prepared and biotinylated by Click reaction. Nascent RNA was purified by using Streptavidin T1 magnetic beads and was subject to cDNA synthesis using SuperScript VILO cDNA synthesis kit (Life Technologies). Relative Nascent RNA expression was determined using DCT methods relative to control gene U1 or Actin. Primer sequences used in qPCR analysis of 10q, 13q, XYq, and 18q TERRA were described previously 2.
Reference (Supplmentary Methods)
1 Deng, Z., Norseen, J., Wiedmer, A., Riethman, H. & Lieberman, P. M. TERRA RNA binding to TRF2 facilitates heterochromatin formation and ORC recruitment at telomeres. Mol […]
2 Deng, Z. et al. HSV-1 remodels host telomeres to facilitate viral replication. Cell Rep 9,
3 Deng, Z. et al. A role for CTCF and cohesin in subtelomere chromatin organization, TERRA transcription, and telomere end protection. EMBO J 31, 4165-4178, […]

The test system of a further assay is LOX cells. Kind of assay: TIF assay (IF FISH, γH2AX or 53BP1 with telomere DNA) in LOX cells. In kind it is cell-based, human. The note with it: 2 μM, 3 days. The method, then:
Mei et al, 2020 TERRA Requires TRF2 GAR Domain […]
Indirect immunofluorescence (IF) combined with fluorescence in situ hybridization (FISH) analysis for telomere dysfunction was performed as described 4 with some modifications. Briefly, cells grown on coverslips were fixed for 15 min in 2% paraformaldehyde/1x PBS at RT, followed by permeabilization for 10 min in 1x PBS/0.5% Triton X-100 at RT. After washing with 1x PBS, cells were incubated for 60 min in blocking solution (0.5% BSA, 0.2% fish gelatin, 0.1% Triton X-100, 1 mM EDTA in 1x PBS) before immuno-staining. Primary antibodies were prepared in blocking solution at following dilutions: anti-53BP1 (1:500, IHC-00001; Bethyl Laboratories) and γH2AX (1:2,000, A300-081A; Bethyl Laboratories). After IF, cells were fixed in 4% paraformaldehyde in 1x PBS for 10 min, washed in 1x PBS, dehydrated in ethanol series (70%, 95%, 100%), and air-dried. Coverslips were denatured for 5 min at 80-85° C in hybridization mix [70% formamide, 10 mM Tris-HCl, pH 7.2, and 0.5% blocking solution (Roche)] containing telomeric PNA-Cy3-(CCCTAA)3 probe, and hybridization was continued for 2 hrs at room temperature in the dark moisturized chambers. Coverslips were washed twice for 15 min each with 70% formamide, 10 mM Tris-HCl (pH 7.2), and 0.1% BSA, and followed by three washes for 5 min each with 0.15 M NaCl, 0.1 M Tris-HCl (pH 7.2), and 0.08% Tween-20. Nuclei were counterstained with 0.1 µg/ml DAPI in blocking solution and coverslips mounted with VectorShield (Vector Laboratories). RNA FISH was performed as previously described 1.
Images were captured with a 100x lens on a Nikon E600 Upright microscope (Nikon […]
Instruments, Inc., Melville, NY) with ImagePro Plus software (Media Cybernetics, Silver Spring, MD) for image processing. Cells with > 5 53BP1/γH2AX foci co-localizing with telomere DNA foci were scored as positive for TIF. The quantification was generated from at least three independent Immuno-FISH experiments. […]
0.1 μg/mL DAPI in 1x PBS and slides were mounted with VectorShield (Vector Laboratories).
Images were taken with a 100x lens on a Nikon E600 Upright microscope (Nikon Instruments) using ImagePro Plus software (Media Cybernetics) for image processing. Statistical analysis was performed using two-tailed Student t Test.

The subject of assay [4] is TERRA (5'-fluorescein) (RNA, G4) UUAGGGUUAGGGUUAGGGUUAGGG
The experiment in a line: fluorescence polarization. The note with it: 150 mM KCl, NaCl or LiCl (salt not specified); 20 mM HEPES; 20 mM HEPES pH 7.5, room temperature, tRNA competitor added, 10 nM probe; apparent.

Another assay deals with G4 TeloDNA. Kind of assay: FP assay, compound binding to 5′ fluorescein-labeled TeloDNA. As to conditions: 10 nM fluorescein-labeled probe, 3 independent experiments. The procedure: (§1) All the nucleic acids, peptides and chemicals were dissolved in buffer containing 20 mM HEPES pH7.5, 150 mM salt (KCl, NaCl, LiCl) at the stock concentration of 1 mM. For peptide and nucleic acid interactions, 25μL of each nucleic acids with a sequential twofold dilutions starting from 50 μM was added into each well of 96-well plate followed by adding 25μL of 10 nM FITC labeled TRF2 peptide. For compounds and nucleic acid interactions, 20μL of each compounds with a sequential twofold dilutions starting from 50 μM were added into each well of 96-well plate followed by adding 5μL of 20 ng/mL tRNA and 25μL of 10 nM FAM labeled nucleic acids. For inhibition assay, 5μL FITC labeled TRF2 GAR peptide (10 nM final concentration) and 10 μL oligos (5 μM final concentration) were mixed, followed by adding 5μL of each compound with a sequential twofold dilutions starting from 50 μM into each well of 384-well plate. All components were mixed thoroughly, and the plate was incubated at room temperature for 1 h before placing in an Envision Plate Reader for reading at 495/520 nm. All data curves were fitted using Prism 8.0.

In another assay the target is EBNA1 G4 RNA. Kind of assay: FP assay, compound binding to EBNA1 G4 RNA. The procedure: as §1

The EC50 is the concentration giving half of the maximal effect. As to `CN(C)c1ccc(Nc2c3ccc(NC(=O)CCN4CCCC4)cc3nc3cc(NC(=O)CCN4CCCC4)ccc23)cc1` [BRACO-19], the binding result in assay [1] is listed as “no”. Also, the EC50 in assay [2] was 3.9 µM; in assay [4] it was 7.4 µM; at G4 TeloDNA it was 3.9 µM; on EBNA1 G4 RNA, 227 nM. Besides, in assay [3], the “nascent TERRA transcripts from chromosomes 10q, XYq and 18q” value is given as “significant reduction (~ two fold)”. In addition, the “increase in telomere-associated γH2AX compared to PP treatment” value in the assay with LOX cells is recorded as “~ three fold increase”. Besides, in the assay with LOX cells, the “level of γH2AX or 53BP1 associated telomere dysfunction-induced foci (TIFs)” value is listed as “moderate level”. Moreover, in the assay with EBNA1 G4 RNA, the “binding to EBNA1 G4 RNA” value was “high binding affinity”.
Take `CCc1c(C)c2cc3nc(cc4nc(cc5c(CC)c(C)c(cc1[nH]2)n5C)C(C)=C4CCC(=O)O)C(CCC(=O)O)=C3C` [NMM, N-methyl mesoporphyrin IX]: in assay [1], the binding result was “no”. The values for the EC50 (in assay [2]; in assay [4]; on G4 TeloDNA) were 4.8 µM, 0.68 µM and 4.8 µM, respectively. Besides, the “nascent TERRA transcripts from chromosomes 10q, XYq and 18q” value in assay [3] is recorded as “significant reduction (~ two fold)”. Also, in the assay with LOX cells, the “increase in telomere-associated γH2AX compared to PP treatment” value was “~ fivefold increase”. In the assay with LOX cells, the “level of γH2AX or 53BP1 associated telomere dysfunction-induced foci (TIFs)” value is “high level”. Moreover, the “binding to EBNA1 G4 RNA” value with EBNA1 G4 RNA was “did not display any binding”.
